Experimental data from BindingDB's records for doi:10.1021/jm301304e (University of Toyama, 2012).

Assay: Inhibition of bovine liver beta-glucosidase

IC50 [µM] | Structure (SMILES)
210 | OC[C@H]1NC[C@H](O)[C@@H](O)[C@@H]1O [(2R,3R,4R,5S)-2-(hydroxymethyl)piperidine-3,4,5-triol]
120 | CCCC[C@H]1N[C@H](CO)[C@@H](O)[C@H](O)[C@H]1O [(2R,3S,4R,5R,6R)-2-butyl-6-(hydroxymethyl)piperidine-3,4,5-triol]
